Reference: the NIST ThermoML archive (doi:10.1021/acs.jced.6b00169)
Values joined by “and” are separate entries in the source; they are usually repeats but may differ in a detail not shown here. Equal values may be shown once.

Conditions: for vapor or sublimation pressure: Liquid, Closed cell (Static) method; for mass density: Fluid (supercritical or subcritical phases), isochoric method

FC(F)(F)/C=C\C(F)(F)F [(Z)-1,1,1,4,4,4-hexafluorobut-2-ene]
Conditions | vapor or sublimation pressure
323.47 K | 182.2 kPa
323.49 K | 177.9 kPa
323.5 K | 180.6 kPa [middle of 4 runs]
323.51 K | 181.2 kPa [middle of 7 runs]
323.52 K | 180.2 kPa [middle of 5 runs]
323.53 K | 182.1 kPa and 186.3 kPa
333.44 K | 247.7 kPa
333.45 K | 248.1 kPa
333.46 K | 243.8 kPa
333.47 K | 247.2 kPa and 243.5 kPa
333.48 K | 246.1 kPa and 248.3 kPa
333.49 K | 247.6 kPa [middle of 9 runs]
333.5 K | 254.8 kPa
343.45 K | 331.8 kPa
343.46 K | 331.6 kPa
343.48 K | 331.2 kPa [middle of 6 runs]
343.49 K | 330.6 kPa [middle of 7 runs]
343.5 K | 343.2 kPa and 336.4 kPa and 331.7 kPa
353.46 K | 435.3 kPa
353.47 K | 435.3 kPa
353.48 K | 435.2 kPa and 429.9 kPa and 430.2 kPa
353.49 K | 435.2 kPa [middle of 5 runs]
353.5 K | 434.6 kPa [middle of 4 runs]
363.46 K | 562 kPa and 561.7 kPa
363.47 K | 555.8 kPa and 556.4 kPa
363.48 K | 562.1 kPa [middle of 4 runs]
363.49 K | 562.2 kPa [middle of 5 runs]
363.5 K | 567.8 kPa and 559.4 kPa
373.45 K | 714 kPa
373.47 K | 714.4 kPa [middle of 4 runs]
373.48 K | 731.7 kPa and 715.2 kPa
373.49 K | 713.5 kPa [middle of 5 runs]
373.5 K | 716.9 kPa [middle of 4 runs]
383.45 K | 895.1 kPa
383.46 K | 888.7 kPa
383.47 K | 896.6 kPa and 889.9 kPa and 895.9 kPa
383.48 K | 896.5 kPa and 895.3 kPa
383.49 K | 893.4 kPa [middle of 6 runs]
383.5 K | 921.5 kPa and 896.4 kPa
393.47 K | 1103.1 kPa and 1109.7 kPa
393.48 K | 1112.1 kPa and 1110.3 kPa
393.49 K | 1109.6 kPa [middle of 4 runs]
393.5 K | 1111.5 kPa [middle of 4 runs]
393.51 K | 1113.3 kPa and 1107 kPa
403.41 K | 1365.2 kPa
403.47 K | 1361.3 kPa
403.48 K | 1355 kPa
403.49 K | 1364.2 kPa [middle of 4 runs]
403.5 K | 1358.5 kPa and 1362.4 kPa
403.51 K | 1363.4 kPa and 1358.6 kPa and 1364.3 kPa
413.47 K | 1648.2 kPa and 1655.1 kPa
413.49 K | 1657.8 kPa [middle of 4 runs]
413.5 K | 1651.9 kPa
413.51 K | 1658.4 kPa [middle of 4 runs]
423.47 K | 1995.7 kPa
423.48 K | 2000.2 kPa and 1989.3 kPa
423.49 K | 2000.4 kPa and 1992.9 kPa and 1997.8 kPa
423.5 K | 1990 kPa and 1999.2 kPa
423.51 K | 1999.9 kPa and 1993.1 kPa and 1999.7 kPa
433.46 K | 2391.8 kPa
433.47 K | 2384.5 kPa
433.49 K | 2396.8 kPa and 2389.4 kPa and 2393.9 kPa
433.5 K | 2385.2 kPa and 2388.6 kPa
433.51 K | 2396.2 kPa
433.52 K | 2395.9 kPa
443.45 K | 2854.5 kPa
443.47 K | 2837.9 kPa
443.5 K | 2847.4 kPa and 2860.1 kPa
443.51 K | 2859.8 kPa and 2850.8 kPa

Conditions | mass density [kg/m3]
333.47 K, 5013.6 kPa | 1294.9
333.49 K, 4294.8 kPa | 1291.4
343.5 K, 9927.3 kPa | 1290.8
353.5 K, 1179.2 kPa | 1214.2
363.49 K, 3108.6 kPa | 1196.7
363.5 K, 5627.6 kPa | 1213.6
373.49 K, 7319.3 kPa | 1196.2
383.48 K, 2373.8 kPa | 1121.1
393.48 K, 5697.9 kPa | 1120.5
393.51 K, 1151.8 kPa | 1038.9
403.48 K, 1382.1 kPa | 964.9
403.49 K, 1273.1 kPa | 87.8
403.5 K, 9039.9 kPa | 1120
403.51 K, 2538.6 kPa | 1038.4
413.48 K, 1705.4 kPa | 964.4
413.49 K, 1667.6 kPa | 884.8
413.5 K, 1339.2 kPa | 87.8
413.51 K, 5100.3 kPa | 1037.9
423.48 K, 3720.9 kPa | 964
423.49 K, 2049.1 kPa | 884.4
423.5 K, 1403.2 kPa | 87.7
423.51 K, 7690 kPa | 1037.4
433.47 K, 2440.9 kPa | 790.6
433.49 K, 1466 kPa | 87.7
433.49 K, 3342.9 kPa | 883.9
433.49 K, 5765 kPa | 963.5
433.5 K, 2159.2 kPa | 167.2
443.48 K, 2727.2 kPa | 261.3
443.48 K, 3403.1 kPa | 790.2
443.49 K, 2855.8 kPa | 451.8
443.49 K, 2856.2 kPa | 410.2
443.49 K, 2906.1 kPa | 659.8
443.49 K, 4930.5 kPa | 883.5
443.5 K, 1526.7 kPa | 87.6
443.5 K, 2301.4 kPa | 167.1
443.5 K, 2856.5 kPa | 556.1
443.5 K, 2857 kPa | 496.8
443.5 K, 3041.4 kPa | 734.7
443.5 K, 7837.5 kPa | 963.1
443.51 K, 2855.3 kPa | 532.1
443.51 K, 2860.2 kPa | 589.2
444.48 K, 2904 kPa | 410.2
444.48 K, 2905.8 kPa | 451.8
444.49 K, 2907.9 kPa | 496.8
444.49 K, 2909.6 kPa | 556.1
